Assay results: patent publication US20100029654A1, “CARDIOVASCULAR COMPOSITIONS AND USE OF THE SAME FOR THE TREATMENT OF ALZHEIMER'S DISEASE” (MOUNT SINAI SCHOOL OF MEDICINE, priority 2006, published 2010)
Counter-ions that a name gives are not always drawn. Like-named read-outs stand apart in the source and are kept apart here.

Legend:
[1] = test system: primary cortico-hippocampal neuron cultures
[2] = test system: primary cortico-hippocampal neuron cultures; assay: lactate dehydrogenase (LDH) activity assay in parallel neuron cultures; details: for LDH at E-5M % of change: drug at E-5M; for LDH (at 5F-5 M): Table IV
Experimental: (§1) For in vitro treatments drugs available from “The Spectrum Collection” in stocks of 10 mM in DMSO were applied directly to cultures to the desired concentrations (final 1% DMSO); control primary neuron cultures from Tg2576 embryos were treated with vehicle resulting in a final 1% DMSO.
(§2) Cell viability was assessed using a commercial available LDH assay kit according to the manufacture's instruction (Promega).

[3] = test system: Aβ1-40; assay: Aβ1-40 content in conditioned medium of primary cortico-hippocampal neuron cultures from Tg2576 mice (ELISA; primary and secondary dose-response screening); type: cell-based, mouse; details: for activity at 100 µM / EC50: Mus musculus; for activity at 100 µM: 24 h, read-out: Ab1-40 (% of ctl); for activity at 100 µM / Ab1-40 (% of ctl): drug 100 μM; for reduced Aβ1-40: <85% of ctl
Procedure, shortened: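 Primary cortico-hippocampal neurons from embryonic Tg2576 mice were plated at 1.0×10^5 cells per well on poly-D-lysine-coated 96-well plates in Neurobasal with 2% B27, 0.5 mM L-glutamine and 1% penicillin-streptomycin. Cultures received drug in 1% DMSO, and Aβ1-40 in the conditioned medium was measured by BioSource ELISA 24 hours after treatment, relative to vehicle controls.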

[4] = test system: Aβ1-42; assay: Aβ1-42 content in conditioned medium of primary cortico-hippocampal neuron cultures from Tg2576 mice (ELISA; primary and secondary dose-response screening); type: cell-based, mouse; details: for Ab1-42 (% of ctl) / activity at 100 µM: drug 100 μM; for reducing Aβ1-42: <85% of ctl; for activity at 100 µM: Mus musculus, Neuron, 24 h, read-out: Ab1-42 (% of ctl)
Procedure, shortened: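 This screen tested cardiovascular drugs for Aβ-lowering in Tg2576 embryonic cortico-hippocampal neuron cultures plated at 1.0×10^5 cells per well in poly-D-lysine-coated 96-well plates with Neurobasal/B27 medium. Drugs at 100 μM were added directly to the medium in duplicate, with 1% DMSO alone as the control. Conditioned medium was then collected, and its Aβ1-42 level was quantified with BioSource ELISA kits.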

[5] = test system: Aβ1-42; assay: as above; type: cell-based, mouse; details: Mus musculus; for activity at 100 µM: primary screening, drug 100 μM, Tg2576 neuron cultures, table sorted by Aβ1-42, read-out: Ab1-42 (% of ctl); for EC50: Neuron
[6] = test system: primary cortico-hippocampal neuron cultures; remark: listed apart in the source
Experimental: as §1, §2

[7] = test system: primary cortico-hippocampal neuron cultures; assay: MTT in primary screening
[8] = test system: Tg2576 mice; assay: tolerability: body weight, fluid consumption, glucose tolerance; details: Tg2576, short-term dosing
[9] = test system: Tg2576 mice; assay: blood pressure (systolic, diastolic, MAP) by tail-cuff; type: in vivo, mouse; details: Tg2576, 3 weeks
Experimental: FIG. 1 Tg2576 mice are characterized by normal blood pressure under basal conditions. Baseline measurements of systolic, diastolic blood pressure, and mean arteriole blood pressure (MAP) in ˜11 month old female Tg2576 mice. Strain-, age-, gender-matched WT mice were measured using a commercial blood pressure analysis system designed specifically for small rodents (Hatteras Instruments, NC). Following manufacturer's instruction, mice were temporarily immobilized in a restraining chamber and an inflated tail-cuff wrapped around the tail was used to measure the systolic pressure, diastolic pressure, and MAP. Each blood pressure determination was calculated as the mean of 10 individual measurements per animal (n=6-10 group).
FIG. 6A-C show body weight of mice in response to ˜3 weeks of treatment. […] FIG. 6D-F show the assessment of systolic, diastolic, and MAP blood pressure in Tg2576 mice in response to drug doses below or within the range of those prescribed in hypertension. Blood pressure measurements were conducted using a commercial blood pressure analysis system designed specifically for small rodents (Hatteras Instruments, NC). Following manufacturer's instruction, mice were temporarily immobilized in a restraining chamber and an inflated tail-cuff wrapped around the tail was used to measure pressures. Each blood pressure determination was calculated as the mean of 10 individual measurements per animal. In A-F, values represent mean±SEM values, n=3-5 mice per group. 2-tailed t-test: *P<0.05.
Assessment of blood pressure and glucose utilization. Mouse blood pressure was routinely recorded using a commercial blood pressure analysis system designed specifically for small rodents (Hatteras Instruments, NC). […] Briefly, mice were given a single dose of glucose post-prandially (i.p. 2 g/kg body weight). Blood was collected from the tail-vein periodically over a 2-hour period. Blood glycemic content was assessed using the OneTouch LifeScan System, (LifeScan, Milpitas, Calif.) following the manufacturer's instruction.

[10] = Primary Screening, table sorted by Aβ1-40
[11] = primary screening, table sorted by Aβ1-42
[12] = primary screening, Tg2576 neuron cultures, table sorted by Aβ1-42
[13] = Neuron, secondary dose-response screening 0.01-100 μM, 24 hours, read-out: EC50 (molar) Aβ1-40
[14] = Neuron, Primary Screening, table sorted by Aβ1-40
[15] = Neuron, primary screening, Tg2576 neuron cultures, table sorted by Aβ1-42
[16] = Neuron, Table IV, dose-response 0.01-100 μM, read-out: EC50 (M): Ab-lowering activity Abeta1-40
[17] = Table IV, dose-response 0.01-100 μM, read-out: EC50 (M): Ab-lowering activity
[18] = 24 h, secondary dose-response screening 0.01-100 μM, 24 hours, read-out: EC50 (molar) Aβ1-42

Molecule | LDH (% of ctl) [2, 10] | LDH at E-5M % of change [2] [%] | LDH (% of ctl) [2, 11] | activity at 100 µM [3, 12] [%] | Ab1-40 (% of ctl) [3, 10] | reduced Aβ1-40 ([3]; primary screening) | Ab1-42 (% of ctl) [4, 10] | reducing Aβ1-42 ([4]; primary screening) | activity at 100 µM ([5]; 24 h) [%] | MTT (% of ctl) [7, 10] | MTT (% of ctl) [7, 11] | activity at 100 µM [3, 14] [%] | activity at 100 µM [3, 15] [%] | activity at 100 µM [4, 10] [%] | activity at 100 µM [4, 12] [%] | also measured
COc1ccc(Cc2nccc3cc(OC)c(OC)cc23)cc1OC [Papaverine Hydrochloride] | 118.4 % of ctl | −8.9 | 118.4 % of ctl | 15.3 | 15.3 % of ctl | reduced Aβ1-40 | 30.1 % of ctl | useful in reducing Aβ1-42 | 30.1 |  |  |  |  |  |  | MTT (% of ctl) ([1]; Tg2576, mouse, 100 µM): 92.2 % of ctl; EC50 [3, 13]: 1.72e-05 M; EC50 ([5]; secondary dose-response screening 0.01-100 μM, 24 hours, read-out: EC50 (molar) Aβ1-42): 1.91e-05 M
CC[C@H]1[C@@H]2C[C@H]3[C@@H]4N(C)c5ccccc5[C@]45C[C@@H]([C@H]2[C@H]5O)N3[C@@H]1O [Ajmaline] |  |  |  | 114 | 114.0 % of ctl |  | 103.3 % of ctl |  | 103 | 90.3 % of ctl | 90.3 % of ctl |  |  |  |  | LDH (% of ctl) ([6]; Tg2576, mouse): 97.6 % of ctl
Veratrine Sulfate |  |  |  |  | 58.5 % of ctl | reduced Aβ1-40 | 87.1 % of ctl |  |  |  |  |  |  |  |  | MTT (% of ctl) [1]: 84.4 % of ctl; Ab1-40 (% of ctl) [3, 12]: 58.5 % of ctl; Ab1-42 (% of ctl) [4, 12]: 87.1 % of ctl; LDH (% of ctl) [6]: 124.4 % of ctl
CC(C)NCC(O)COc1cccc2ccccc12.Cl (stereo not drawn) [Propranolol Hydrochloride (−)] |  |  |  |  | 55.0 % of ctl | reduced Aβ1-40 | 32.8 % of ctl | useful in reducing Aβ1-42 |  |  |  |  |  |  |  | Ab1-40 (% of ctl) [3, 12]: 55.0 % of ctl; Ab1-42 (% of ctl) [4, 12]: 32.8 % of ctl; LDH (% of ctl) [6]: 166.6 % of ctl
CCCCc1nc(Cl)c(CO)n1Cc1ccc(-c2ccccc2-c2nn[nH]n2)cc1 [Losartan] | 110.4 % of ctl |  | 110.4 % of ctl |  |  | reduced Aβ1-40 |  |  |  | 71.3 % of ctl | 71.3 % of ctl | 76 | 76 | 97.1 | 97.1 | LDH (at 5F-5 M) [2]: no change; fluid intake [8]: did not significantly influence the amount of fluid intake; EC50 [3, 16]: 0.000117 M; systolic, diastolic, MAP blood pressure ([9]; doses within the range used for hypertension): decreased systolic, diastolic, and MAP blood pressure; systolic, diastolic, MAP blood pressure ([9]; doses ~3 fold below the minimal hypertension dose): did not significantly influence either systolic, diastolic or MAP blood pressure; EC50 [5, 17]: 0.0001 M
NNc1nncc2ccccc12 [Hydralazine Hydrochloride] | 101.1 % of ctl | −1.2 | 101.1 % of ctl |  |  | reduced Aβ1-40 |  | useful in reducing Aβ1-42 |  | 95.7 % of ctl | 95.7 % of ctl | 66.1 | 66.1 | 63.2 | 63.2 | LDH (at 5F-5 M) [2]: no change; EC50 [3, 16]: 9.29e-06 M; EC50 [3, 13]: 9.29e-06 M; EC50 [5, 18]: 1.04e-05 M; EC50 [5, 17]: 1.04e-05 M
C[N+](C)(C)CCCCCC[N+](C)(C)C [Hexamethonium Bromide] | 99.7 % of ctl |  | 99.7 % of ctl | 84.8 | 84.8 % of ctl | reduced Aβ1-40 | 72.6 % of ctl | useful in reducing Aβ1-42 | 72.6 | 92.1 % of ctl | 92.1 % of ctl |  |  |  |  | 
N=C(N)NCCN1CCCCCCC1 [Guanethidine Sulfate] |  |  |  |  |  |  |  |  |  |  |  |  |  |  |  | LDH (% of ctl) ([6]; Tg2576, mouse): 1057.3 % of ctl
C[C@]12CC[C@H]3[C@@H](CC[C@]4(O)C[C@@H](O)CC[C@]34C=O)[C@@]1(O)CC[C@@H]2C1=CC(=O)OC1 [Strophanthidin] | 119.4 % of ctl |  | 119.4 % of ctl | 108 | 107.5 % of ctl |  | 88.6 % of ctl |  | 88.6 | 99.2 % of ctl | 99.2 % of ctl |  |  |  |  | 
C[C@H]1O[C@@H](O[C@H]2[C@@H](O)C[C@H](O[C@H]3[C@@H](O)C[C@H](O[C@H]4CC[C@@]5(C)[C@H](CC[C@@H]6[C@@H]5CC[C@]5(C)[C@@H](C7=CC(=O)OC7)CC[C@]65O)C4)O[C@@H]3C)O[C@@H]2C)C[C@H](O)[C@@H]1O [Digitoxin] | 106.4 % of ctl |  | 106.4 % of ctl | 68.3 | 68.3 % of ctl | reduced Aβ1-40 | 92.9 % of ctl |  | 92.9 | 86.0 % of ctl | 86.0 % of ctl |  |  |  |  | 
COCCOC(=O)C1=C(C)NC(C)=C(C(=O)OC(C)C)C1c1cccc([N+](=O)[O-])c1 (stereo not shown) [Nimodipine] | 100.4 % of ctl | −4.0 | 100.4 % of ctl |  |  |  |  |  |  | 115.6 % of ctl | 115.6 % of ctl | 79.1 | 79.1 | 90.9 | 90.9 | EC50 ([5]; 24 h, conditioned medium of primary cortico-hippocampal neuron cultures from Tg2576 embryos, 24 hours after treatment, relative to vehicle (1% DMSO) control, read-out: EC50 (molar) Aβ1-42): 2.81e-05 M; EC50 [5, 18]: 2.81e-05 M
CCN1C[C@]2(C)CC[C@H](OC)[C@@]34C1[C@]1(OCO[C@@]15C[C@H](OC)[C@H]1C[C@]3(O)[C@@H]5[C@H]1OC)[C@@H](OC(C)=O)[C@H]24 [Deltaline] | 118.9 % of ctl |  | 118.9 % of ctl | 121 | 121.0 % of ctl |  | 143.0 % of ctl |  | 143 | 99.4 % of ctl | 99.4 % of ctl |  |  |  |  | 
C=C(CC)C(=O)c1ccc(OCC(=O)O)c(Cl)c1Cl [Ethacrynic Acid] | 101.5 % of ctl | 10.0 | 101.5 % of ctl |  |  | reduced Aβ1-40 |  | useful in reducing Aβ1-42 |  | 109.9 % of ctl | 109.9 % of ctl | 4.4 | 4.4 | 1.8 | 1.8 | EC50 [3, 13]: 2.1e-05 M; EC50 [5, 18]: 2.25e-05 M
